Results: paper PMC11240878, “Synthesis, enzyme inhibition assay, and molecular modeling study of novel pyrazolines linked to 4-methylsulfonylphenyl scaffold: antitumor activity and cell cycle analysis” (RSC Advances, 2024)
“And” between values parts separate entries of the source, which are not always exact repeats. Identical values can stand only once.

Legend:
[1] = system: MDA-MB-231; experiment: cells; conditions: Homo sapiens, MDA-MB-231, 48 h, read-out: In vitro cytotoxicity IC50
Procedure: (§1) The antitumor experiment was conducted on 59 human tumor cell lines derived from nine different human tissues, following the procedure of the Drug Evaluation Branch at the NCI, Bethesda, MD.[33]

[2] = system: leukemia HL-60; experiment: cells; conditions: Homo sapiens, HL-60, 48 h, read-out: In vitro cytotoxicity IC50
Procedure: as §1

[3] = system: WI-38 normal fibroblast cells; experiment: in vitro; conditions: ratio of WI38 IC50 to cancer cell IC50 values
Procedure: (§2) A normal fibroblast-like fetal lung cell line (WI-38) was used to further investigate the therapeutic safety of the newly synthesized hybrids and evaluate their selective cytotoxicity toward normal and tumor cells.[33,77]
as §1

[4] = in vitro; conditions: human
Procedure: as §2, §1

[5] = system: breast adenocarcinoma MCF-7; experiment: cells; conditions: Homo sapiens, MCF7, 48 h, read-out: In vitro cytotoxicity IC50, MCF-7; MTT, 48 h drug exposure; mean ± SD of three experiments
[6] = system: RPMI-8226; experiment: NCI single-dose GI%, leukemia; assay type: cell-based, human; conditions: RPMI-8226, leukemia; 10.0 μM in one dose
[7] = system: BT-549; experiment: NCI single-dose GI%, breast; assay type: cell-based, human; conditions: BT-549, breast; 10.0 μM in one dose
[8] = system: CAKI-1; experiment: NCI single-dose GI%, renal; assay type: cell-based, human; conditions: CAKI-1, renal; 10.0 μM in one dose
[9] = system: HCT-116; experiment: NCI single-dose GI%, colon; assay type: cell-based, human; conditions: HCT-116, colon; 10.0 μM in one dose
[10] = system: 59 cancer cell lines; experiment: NCI 59 cancer cell line panel, single dose; assay type: cell-based, human; conditions: 10 μM single dose; for MG% (mean growth percent): 59 cell lines
[11] = system: MOLT-4; experiment: NCI single-dose GI%, leukemia; assay type: cell-based, human; conditions: MOLT-4, leukemia; 10.0 μM in one dose
[12] = system: K-562; experiment: NCI single-dose GI%, leukemia; assay type: cell-based, human; conditions: K-562, leukemia; 10.0 μM in one dose
[13] = system: NCI-H522; experiment: NCI single-dose GI%, NSC lung; assay type: cell-based, human; conditions: 10.0 μM in one dose
[14] = system: MCF7; experiment: NCI single-dose GI%, breast; assay type: cell-based, human; conditions: 10.0 μM in one dose
[15] = system: SNB-75; experiment: NCI single-dose GI%, CNS; assay type: cell-based, human; conditions: SNB-75, CNS; 10.0 μM in one dose
[16] = system: UO-31; experiment: NCI single-dose GI%, renal; assay type: cell-based, human; conditions: UO-31, renal; 10.0 μM in one dose
[17] = system: EKVX; experiment: NCI single-dose GI%, NSC lung; assay type: cell-based, human; conditions: 10.0 μM in one dose
[18] = system: A549/ATCC; experiment: NCI single-dose GI%, NSC lung; assay type: cell-based, human; conditions: 10.0 μM in one dose
[19] = system: HT29; experiment: NCI single-dose GI%, colon; assay type: cell-based, human; conditions: 10.0 μM in one dose
[20] = system: MDA-MB-231/ATCC; experiment: NCI single-dose GI%, breast; assay type: cell-based, human; conditions: 10.0 μM in one dose
[21] = system: NCI-H226; experiment: NCI single-dose GI%, NSC lung; assay type: cell-based, human; conditions: 10.0 μM in one dose
[22] = system: SK-OV-3; experiment: NCI single-dose GI%, ovarian; assay type: cell-based, human; conditions: SK-OV-3, ovarian; 10.0 μM in one dose
[23] = system: HL-60(TB); experiment: NCI single-dose GI%, leukemia; assay type: cell-based, human; conditions: 10.0 μM in one dose
[24] = system: UACC-62; experiment: NCI single-dose GI%, melanoma; assay type: cell-based, human; conditions: UACC-62, melanoma; 10.0 μM in one dose
[25] = system: T-47D; experiment: NCI single-dose GI%, breast; assay type: cell-based, human; conditions: 10.0 μM in one dose
[26] = system: HOP-62; experiment: NCI single-dose GI%, NSC lung; assay type: cell-based, human; conditions: HOP-62, NSC lung; 10.0 μM in one dose
[27] = system: MDA-MB-468; experiment: NCI single-dose GI%, breast; assay type: cell-based, human; conditions: MDA-MB-468, breast; 10.0 μM in one dose
[28] = system: PC-3; experiment: NCI single-dose GI%, prostate; assay type: cell-based, human; conditions: PC-3, prostate; 10.0 μM in one dose
[29] = system: UACC-257; experiment: NCI single-dose GI%, melanoma; assay type: cell-based, human; conditions: UACC-257, melanoma; 10.0 μM in one dose
[30] = system: SK-MEL-5; experiment: NCI single-dose GI%, melanoma; assay type: cell-based, human; conditions: SK-MEL-5, melanoma; 10.0 μM in one dose
[31] = system: SR; experiment: NCI single-dose GI%, leukemia; assay type: cell-based, human; conditions: 10.0 μM in one dose

SMILES: CN(C)C/C=C/C(=O)Nc1cc2c(Nc3ccc(F)c(Cl)c3)ncnc2cc1O[C@H]1CCOC1 [Afatinib, reference compound]
- IC50 [1]: 8.05 ± 0.72 µM
- IC50 [2]: 6.5 ± 0.77 µM
- Mean tumor selectivity index (WI38/HL60, MCF7, and MDA-MB-231) [3]: 5.93
- IC50 at 48 h [4]: 44 ± 1.9 µM
- IC50 [5]: 7.91 ± 0.66 µM

SMILES: CS(=O)(=O)c1ccc(C(=O)N2N=C(c3ccccc3)CC2c2ccc(Cl)cc2)cc1 (centres unmarked) [Compound 18b, (5-(4-Chlorophenyl)-3-phenyl-4,5-dihydro-1H-pyrazol-1-yl)(4-(methylsulfonyl)phenyl)methanone]
- GI% [6]: 11%
- GI% [7]: 14%
- GI% [8]: 18%
- GI% [9]: 26%
- PCE (positive cytotoxic effect: ratio of cell lines with growth inhibition >10% to total cell lines) [10]: 22/59
- MG% (mean growth percent) [10]: 92.03%
- GI% [11]: 17%
- melting point: 321 to 323 °C
- GI% [12]: 32%
- GI% [13]: 27%
- GI% [14]: 13%
- GI% [15]: 13%
- GI% [16]: 32%
- GI% [17]: 21%
- GI% [18]: 13%
- GI% [19]: 13%
- GI% [20]: 11%
- GI% [21]: 15%
- GI% [22]: 26%
- GI% [23]: 22%
- GI% [24]: 14%
- GI% [25]: 31%
- GI% [26]: 29%
- GI% [27]: 12%
- GI% [28]: 22%

SMILES: CS(=O)(=O)c1ccc(C(=O)N2N=C(c3ccc(F)cc3)CC2c2ccc(F)cc2)cc1 (centres unmarked) [Compound 18e, (3,5-Bis(4-fluorophenyl)-4,5-dihydro-1H-pyrazol-1-yl)(4-(methylsulfonyl)phenyl)methanone]
- GI% [6]: 12%
- GI% [8]: 17%
- GI% [9]: 17%
- PCE (positive cytotoxic effect: ratio of cell lines with growth inhibition >10% to total cell lines) [10]: 15/59
- MG% (mean growth percent) [10]: 94.18%
- GI% [11]: 35%
- melting point: 330 to 333 °C
- GI% [12]: 29%
- GI% [13]: 15%
- GI% [14]: 13%
- GI% [15]: 18%
- GI% [16]: 22%
- GI% [17]: 12%
- GI% [21]: 12%
- GI% [23]: 48%
- GI% [25]: 17%
- GI% [26]: 14%
- GI% [28]: 15%

SMILES: COc1ccccc1C1CC(c2ccccc2)=NN1C(=O)c1ccc(S(C)(=O)=O)cc1 (centres unmarked) [Compound 18i, (5-(2-Methoxyphenyl)-3-phenyl-4,5-dihydro-1H-pyrazol-1-yl)(4-(methylsulfonyl)phenyl)methanone]
- GI% [29]: 36%
- GI% [8]: 23%
- PCE (positive cytotoxic effect: ratio of cell lines with growth inhibition >10% to total cell lines) [10]: ≤ 12/59 and 12/59
- MG% (mean growth percent) [10]: 96.46%
- GI% [11]: 28%
- melting point: 236 to 238 °C
- GI% [13]: 29%
- GI% [16]: 28%
- GI% [17]: 12%
- GI% [18]: 35%
- GI% [19]: 17%
- GI% [21]: 13%
- GI% [23]: 46%
- GI% [25]: 17%
- GI% [26]: 20%

SMILES: COc1ccc(C2CC(c3ccccc3)=NN2C(=O)c2ccc(S(C)(=O)=O)cc2)cc1 (centres unmarked) [Compound 18j, (5-(4-Methoxyphenyl)-3-phenyl-4,5-dihydro-1H-pyrazol-1-yl)(4-(methylsulfonyl)phenyl)methanone]
- GI% [29]: 14%
- PCE (positive cytotoxic effect: ratio of cell lines with growth inhibition >10% to total cell lines) [10]: 10/59
- MG% (mean growth percent) [10]: 97.16%
- GI% [11]: 26%
- melting point: 258 to 260 °C
- GI% [12]: 13%
- GI% [13]: 14%
- GI% [15]: 12%
- GI% [17]: 12%
- GI% [18]: 24%
- GI% [21]: 11%
- GI% [23]: 35%
- GI% [25]: 16%

SMILES: COc1ccc(C2=NN(C(=O)c3ccc(S(C)(=O)=O)cc3)C(c3ccccc3)C2)cc1 (centres unmarked) [Compound 18k, (3-(4-Methoxyphenyl)-5-phenyl-4,5-dihydro-1H-pyrazol-1-yl)(4-(methylsulfonyl)phenyl)methanone]
- GI% [6]: 11%
- GI% [30]: 14%
- PCE (positive cytotoxic effect: ratio of cell lines with growth inhibition >10% to total cell lines) [10]: ≤ 12/59 and 12/59
- MG% (mean growth percent) [10]: 97.49%
- GI% [11]: 27%
- melting point: 226 to 228 °C
- GI% [13]: 35%
- GI% [15]: 11%
- GI% [16]: 15%
- GI% [18]: 13%
- GI% [19]: 20%
- GI% [21]: 14%
- GI% [23]: 18%
- GI% [27]: 16%
- GI% [28]: 21%

SMILES: COc1ccc(C2=NN(C(=O)c3ccc(S(C)(=O)=O)cc3)C(c3ccc(OC)cc3)C2)cc1 (centres unmarked) [Compound 18l, (3,5-Bis(4-methoxyphenyl)-4,5-dihydro-1H-pyrazol-1-yl)(4-(methylsulfonyl)phenyl)methanone]
- GI% [29]: 45%
- GI% [7]: 13%
- GI% [8]: 14%
- PCE (positive cytotoxic effect: ratio of cell lines with growth inhibition >10% to total cell lines) [10]: 14/59
- MG% (mean growth percent) [10]: 95.78%
- GI% [11]: 33%
- melting point: 198 to 200 °C
- GI% [12]: 18%
- GI% [13]: 34%
- GI% [14]: 11%
- GI% [15]: 11%
- GI% [16]: 16%
- GI% [18]: 40%
- GI% [19]: 19%
- GI% [23]: 47%
- GI% [25]: 11%
- GI% [26]: 11%

SMILES: COc1ccc(C2CC(c3ccc(OC)cc3OC)=NN2C(=O)c2ccc(S(C)(=O)=O)cc2)cc1 (centres unmarked) [Compound 18o, (3-(2,4-Dimethoxyphenyl)-5-(4-methoxyphenyl)-4,5-dihydro-1H-pyrazol-1-yl)(4-(methylsulfonyl)phenyl)methanone]
- GI% [29]: 38%
- GI% [7]: 11%
- GI% [8]: 12%
- GI% [30]: 12%
- GI% [31]: 11%
- PCE (positive cytotoxic effect: ratio of cell lines with growth inhibition >10% to total cell lines) [10]: 15/59
- MG% (mean growth percent) [10]: 94.17%
- GI% [11]: 40%
- melting point: 268 to 270 °C
- GI% [12]: 32%
- GI% [13]: 43%
- GI% [15]: 15%
- GI% [16]: 19%
- GI% [18]: 31%
- GI% [19]: 17%
- GI% [23]: 51%
- GI% [25]: 18%
- GI% [26]: 18%

SMILES: COc1cccc2c1C(=O)c1c(O)c3c(c(O)c1C2=O)C[C@@](O)(C(=O)CO)C[C@@H]3O[C@H]1C[C@H](N)[C@H](O)[C@H](C)O1 [DOX, doxorubicin, reference compound]
- IC50 [1]: 5.1 ± 0.31 µM
- IC50 [2]: 6.01 ± 0.2 µM
- Mean tumor selectivity index (WI38/HL60, MCF7, and MDA-MB-231) [3]: 1.36
- IC50 at 48 h [4]: 7.12 ± 0.7 µM
- IC50 [5]: 4.77 ± 0.4 µM
